Source: ChEMBL document CHEMBL2311477, “Alpha-heteroatom derivatized analogues of 3-(acetylhydroxyamino)propyl phosphonic acid (FR900098) as antimalarials” (J Med Chem, 2013)

Legend:
[1] = test system: Plasmodium falciparum; test: Antimalarial activity against chloroquine-sensitive Plasmodium falciparum 3D7 assessed as parasite growth inhibition; format: functional, organism-based
[2] = test system: Plasmodium falciparum; test: Antimalarial activity against Plasmodium falciparum 3D7 assessed as parasite growth inhibition; format: functional, organism-based
[3] = Inhibition of Escherichia coli DXR assessed as reduction of NADPH in NADP+ by spectrophotometric analysis
[4] = test system: Plasmodium falciparum; test: Antimalarial activity against Plasmodium falciparum K1 infected in human erythrocytes assessed as parasite growth inhibition; format: functional, organism-based
[5] = test system: Escherichia coli; test: Inhibition of Escherichia coli DXR assessed as reduction of NADPH in NADP+ at 100 nM by spectrophotometric analysis

IC50 ([3]; read-out: IC50) [nM]	inhibition [5] [%]	SMILES	IC50 [4] [nM]	further results
–	–	CC(=O)N(O)Cc1ccccc1P(OCOC(=O)C(C)(C)C)OCOC(=O)C(C)(C)C	–	IC50 [1]: 50000 nM
–	–	O=CN(O)CCCP(=O)(O)O [FOSMIDOMYCIN]	–	IC50 [2]: 1000 nM
–	–	CC(=O)N(O)CCC(Oc1ccccc1)P(=O)(O)O (racemic)	13000	IC50 [3]: Not Active
–	1.3	CC(=O)N(O)CCC(NC(=O)Nc1ccccc1)P(=O)(O)O (racemic)	> 64000	–
207	–	CC(=O)N(O)CCC(n1cc(C(C)(C)C)nn1)P(=O)(O)O (racemic)	7760	–
74.6	–	CC(=O)N(O)CCC(N=[N+]=[N-])P(=O)(O)O (racemic)	1980	–
1130	–	CC(=O)N(O)CCC(n1cc(-c2ccccc2)nn1)P(=O)(O)O (racemic)	2750	–
–	3.32	CC(=O)N(O)CCC(n1ccnn1)P(=O)(O)O (racemic)	8960	–
–	1.42	CC(=O)N(O)CCC(NC(=O)c1ccccc1)P(=O)(O)O (racemic)	49000	–

SMILES	IC50 ([3]; read-out: IC50) [nM]	inhibition [5] [%]	IC50 [4] [nM]	further results
CC(=O)N(O)CCCP(=O)(O)O [FR-900098]	15.1	–	–	–
CC(=O)N(O)CCC(O)P(=O)(O)O (racemic)	52.2	–	1820	–
COC(CCN(O)C(C)=O)P(=O)(O)O (racemic)	–	4.14	4000	–
